Experimental data as given in PMC5454942, “The Potential of Triterpenoids from Loquat Leaves (Eriobotrya japonica) for Prevention and Treatment of Skin Disorder” (International Journal of Molecular Sciences, 2017).
In brackets after ≈: the same amount, converted by molar mass. Several values for one entry are separate records, joined by “and”; a condition that tells them apart may be missing. Equal values may be shown once. Read-outs that look alike come from different tables or passages of the source.

Key:
RBL-2H3 cells [1] = test: Cell viability of RBL-2H3 cells (parallel MTT); assay type: cell-based, rat; details: 25 μg/ml, RBL-2H3 cells
Method: (§1) The anti-allergy assay was based mostly on the methods described by Zhu et al. and Yun et al. with slight modification. Rat basophilic leukemia (RBL-2H3) cells were obtained from the Riken Bio-resource Center Cell Bank (Tsukuba, Japan). RBL-2H3 cells were incubated in EMEM medium containing 10% FBS and 1% antibiotics–antimycotics at 37 °C. The cells were seeded on a 96-well plate (2 × 10^5 cells/well). After 24 h of incubation, the medium was supplemented with 0.5 μg/mL anti-DNP (dinitrophenol) mouse immunoglobulin E (IgE) (Sigma-Aldrich). After an additional 24 h of incubation, the medium was replaced with 100 μL of Tyrode buffer. The sample dissolved in DMSO (<0.5% per well) was added, and the cell plate was incubated again for 30 min, then replaced with 100 μL of tyrode buffer containing 50 μg/mL DNP-bovine serum albumin (BSA) (Invitrogen, Carlsbad, CA, USA). After 1 h of incubation, 50 μL of the supernatant was collected from each well and mixed with 50 μL of substrate solution (p-nitrophenyl-N-acetyl-β-glucosaminide, 2 mM; Sigma-Aldrich) in a new 96-well plate. The mixture was incubated at room temperature on a shaker for 3 h. Finally, 100 μL of stop solution was added, and the absorbance was read at 405 nm. A parallel MTT experiment was performed to measure the cell viability. The MTT experiment was done exactly as described.

Propionibacterium acnes = test: Anti-bacterial assay (growth inhibition, MIC/MBC by broth microdilution); assay type: cell-based; details: for activity against P. acnes (in words): at their maximum solubility; for Inhibition Rate (P. acnes growth): concentration 100 μg/mL
Method: The antibacterial assay was based mostly on the methods described by Tanaka et al. with slight modification. Propionibacterium acne (NBRC 107605) was used for the antibacterial assay. A single colony of the test strain was taken and 5 mL of Gifu anaerobic medium (GAM) broth (Nissui, Tokyo) was added to it. This culture was incubated at 37 °C for 30 h. It was then added to the bacterial suspension to prepare a bacterial concentration at 10^5 CFU/mL. The bacterial solution was used for the subsequent antibacterial assay. Each compound was dissolved in DMSO, and benzalkonium chloride (Wako) was used as a positive control. The plate was incubated at 37 °C for 30 h. Finally, bacterial growth was measured by a microplate reader at 630 nm. The MIC and MBC were evaluated by the standard broth microdilution method.

NHDF cells = test: Skin type I collagen synthesis promoting assay (ELISA, with MTT); assay type: cell-based, human; details: 5 μg/mL, fold of control
Method: The assay for measuring the promotion of skin collagen synthesis was described by Kishikawa et al.. Adult NHDF cells (Lonza, Tokyo) were routinely maintained in 10% FBS and 1% antibiotic-antimycotic (Invitrogen) in Dulbecco’s modified Eagle’s medium (DMEM, Wako). After growing to confluence, cells at a density of 5 × 10^3 cells/well were seeded on 96-well plates for 24 h before the treatment. The medium was replaced with a mixture of 1 μL of sample solution (DMSO < 0.5% per well) and 99 μL of DMEM supplemented with 0.5% FBS. After 72 h of cultivation, the amount of collagen in the medium was measured using a human type I collagen enzyme-linked immunosorbent assay (ELISA) kit (ACEL, Kanagawa, Japan). The amount of collagen production was calculated using a standard curve prepared by measurement by the same ELISA. The cells remaining in the 96-well plate were subjected to an MTT assay. Ascorbic acid (100 μM, Wako) was used as a positive control.

B16 melanoma cells [2] = test: Anti-melanogenesis assay (melanin content); assay type: cell-based, mouse
Method: (§2) This assay was performed as described by Arung et al.. The mouse melanoma cell line B16 was obtained from the Riken Bioresource Center Cell Bank (Tsukuba, Japan). The B16 melanoma cells were maintained in Eagle’s Minimal Essential Medium (EMEM, Nissui Chemical, Tokyo) supplemented with 10% (v/v) fetal bovine serum (FBS; Gibco, Carlsbad, CA, USA) and 0.09 mg/mL theophylline (Sigma-Aldrich, St. Louis, MO, USA). […] After 24 h, test samples were dissolved in DMSO (<0.2% per well) and sample solution were added to each well. Arbutin (Tokyo Kasei Kogyo, Tokyo) was used as a positive control. The cells were incubated for an additional 48 h, and then the medium was replaced with fresh medium containing each sample again. After 24 h, the melanin content and the cell viability were measured using a microplate reader (BioTek-ELX800, BioTek Instruments, Winooski, VT, USA) at 405 nm and 570 nm, respectively. Cell viability was measured using the MTT (3-(4,5-dimethylthiazol-2-yl)-2,5-diphenyltetrazolium bromide) method.

B16 melanoma cells [3] = test: Cell viability of B16 melanoma cells (MTT); details: for Inhibition rate (100% − cell viability): B16 cells; for CC50 cell viability / CC50: B16 melanoma cells, MTT; for CC50: read-out: CC50 (cell viability)
Method: as §2

in vitro = details: mouse
Method: as §2

RBL-2H3 cells [4] = test: β-hexosaminidase release from IgE-stimulated RBL-2H3 mast cells; assay type: cell-based, rat; details: Rattus norvegicus, RBL-2H3
Method: as §1

[5] = Cell viability of RBL-2H3 cells (parallel MTT); assay type: cell-based, rat; details: rat
Method: as §1

[6] = B16 melanoma cells, read-out: IC50 (melanin synthesis)
[7] = Mus musculus, B16 melanoma cells, read-out: IC50 (melanin synthesis)
[8] = Mus musculus, B16 melanoma cells, read-out: IC50 melanin
[9] = Mus musculus, B16, read-out: Inhibition rate (100% − melanin synthesis)

| SMILES | Cell viability (RBL-2H3 cells [1]) | MBC (Propionibacterium acnes; P. acnes, broth microdilution) | MIC (Propionibacterium acnes; P. acnes, broth microdilution) | activity against P. acnes (in words) (Propionibacterium acnes) | Inhibition Rate (P. acnes growth) (Propionibacterium acnes) | CP/CV value (collagen production %/cell viability %) (NHDF cells) | Inhibition rate (100% − melanin synthesis) (B16 melanoma cells [2]; 1 μg/ml, B16 cells) | Inhibition rate (100% − melanin synthesis) (B16 melanoma cells [2]; 2.5 μg/ml, B16 cells) | Inhibition rate (100% − melanin synthesis) (B16 melanoma cells [2]; 5 μg/ml, B16 cells) | Inhibition rate (100% − melanin synthesis) (B16 melanoma cells [2]; 10 μg/ml, B16 cells) | Inhibition rate (100% − melanin synthesis) (B16 melanoma cells [2]; 20 μg/ml, B16 cells) | IC50 melanin (B16 melanoma cells [2]; B16 melanoma cells) | IC50 (B16 melanoma cells [2]; [6]) | Inhibition rate (100% − cell viability) (B16 melanoma cells [3]; 1 μg/ml) | Inhibition rate (100% − cell viability) (B16 melanoma cells [3]; 2.5 μg/ml) | Inhibition rate (100% − cell viability) (B16 melanoma cells [3]; 5 μg/ml) | Inhibition rate (100% − cell viability) (B16 melanoma cells [3]; 10 μg/ml) | Inhibition rate (100% − cell viability) (B16 melanoma cells [3]; 20 μg/ml) | CC50 cell viability (B16 melanoma cells [3]) | CC50 (B16 melanoma cells [3]) | also measured |
| --- | --- | --- | --- | --- | --- | --- | --- | --- | --- | --- | --- | --- | --- | --- | --- | --- | --- | --- | --- | --- | --- |
| C[C@@H]1CC[C@]2(C(=O)O)CC[C@]3(C)C(=CC[C@@H]4[C@@]5(C)C[C@@H](O)[C@H](OC(=O)/C=C/c6ccc(O)cc6)C(C)(C)[C@@H]5CC[C@]43C)[C@@H]2[C@]1(C)O (relative stereo) [Compound 17, 3-O-trans-p-coumaroyl tormentic acid] | 99.8 ± 7.0% | 200 µg/mL (≈ 315 µM) | 100 µg/mL (≈ 158 µM) | active | 101.4 ± 2.1% | 1.2 | 2.8 ± 0.9% | 6.2 ± 1.7% | 11.1 ± 0.6% | 29.4 ± 6.8% | 30.5 ± 6.0% | > 20.0 µg/mL | > 30.9 µM | 0.0 ± 8.4% | 5.1 ± 6.0% | 10.7 ± 10.0% | 41.1 ± 9.2% | 61.0 ± 1.6% | 15.6 µg/mL (≈ 24.6 µM) | 24 µM | – |
| C[C@@H]1CC[C@]2(C(=O)O)CC[C@]3(C)C(=CC[C@@H]4[C@@]5(C)C[C@@H](O)[C@H](OC(=O)/C=C\c6ccc(O)cc6)C(C)(C)[C@@H]5CC[C@]43C)[C@@H]2[C@]1(C)O (relative stereo) [Compound 18, 3-O-cis-p-coumaroyl tormentic acid] | 104.6 ± 6.7% | 200 µg/mL (≈ 315 µM) | 100 µg/mL (≈ 158 µM) | active | 103.5 ± 2.2% | 1.1 | 0.0 ± 2.1% | 0.0 ± 5.3% | 0.0 ± 3.8% | 35.6 ± 1.1% | 47.1 ± 6.0% | > 20.0 µg/mL | > 30.9 µM | 7.0 ± 8.8% | 6.6 ± 11.1% | 12.6 ± 8.4% | 42.4 ± 14.9% | 80.1 ± 9.5% | 12.6 µg/mL (≈ 19.8 µM) | 19.5 µM | – |
| OC[C@H]1O[C@@H](Oc2ccc(O)cc2)[C@H](O)[C@@H](O)[C@@H]1O [Arbutin, reference compound] | – | – | – | – | – | – | – | – | – | – | – | – | – | – | – | – | – | – | – | – | IC50 (B16 melanoma cells [2]; [7]): 976 µM; CC50 at 72 h (in vitro): 1820 µM |
| C[C@H]1[C@H](C)CC[C@]2(CO)CC[C@]3(C)C(=CC[C@@H]4[C@@]5(C)CC[C@H](O)C(C)(C)[C@@H]5CC[C@]43C)[C@H]12 [Compound 3, Uvaol] | – | – | – | – | – | – | – | – | – | – | – | – | – | – | – | 4.0 ± 7.6% | 10.8 ± 6.8% | 6.5± 7.4% | – | – | inhibition at 25 µg/mL (RBL-2H3 cells [4]; 25 μg/mL, read-out: Inhibition Rate (β-hexosaminidase release)): 29.9 ± 3.3%; viability at 25 μg/ml ([5]; 25 μg/ml, RBL-2H3 cells, read-out: Cell viability): 110 ± 10.2%; inhibition at 50 µg/mL (Propionibacterium acnes; Cutibacterium acnes, concentration 50 μg/mL, read-out: Inhibition Rate (P. acnes growth)): < 0%; inhibition at 5 µg/mL (B16 melanoma cells [2]; Mus musculus, 5 μg/ml, B16 cells, read-out: Inhibition rate (100% − melanin synthesis)): 0%; inhibition at 10 µg/mL (B16 melanoma cells [2]; Mus musculus, 10 μg/ml, B16 cells, read-out: Inhibition rate (100% − melanin synthesis)): 14.2 ± 2.6%; inhibition at 20 µg/mL (B16 melanoma cells [2]; Mus musculus, 20 μg/ml, B16 cells, read-out: Inhibition rate (100% − melanin synthesis)): 14.6 ± 4.6%; IC50 (B16 melanoma cells [2]; [7]): > 45.2 µM; IC50 (B16 melanoma cells [2]; [8]): > 20 µg/mL; CC50 at 72 h (in vitro; B16 melanoma cells): > 45.2 µM |
| C[C@@H]1CC[C@]2(C(=O)O)CC[C@]3(C)C(=CC[C@@H]4[C@@]5(C)C[C@@H](O)[C@H](O)C(C)(C)[C@@H]5CC[C@]43C)[C@@H]2[C@]1(C)O [Compound 11, tormentic acid] | 62.6 ± 1.1% | 200 µg/mL (≈ 409 µM) | 100 µg/mL (≈ 205 µM) | active | 102.8 ± 2.1% | 1.3 | 0.0± 6.1% | 11.3 ± 3.4% | 34.8 ± 4.5% | 51.3 ± 0.9% | 73.4 ± 8.0% | 9.0 µg/mL (≈ 18.4 µM) | 18.5 µM | 12.0 ± 12.8% | 13.7 ± 10.7% | 8.7 ± 12.1% | 52.4 ± 8.6% | 85.8 ± 1.6% | 11.4 µg/mL (≈ 23.3 µM) | 23.3 µM | – |
| CC1CCC2(C(=O)O)CCC3(C)C(=CCC4C5(C)C(CO)=CC(C)(C)C5CCC43C)C2C1(C)O (centres unmarked) [Compound 16, hyptadienic acid] | – | – | – | active | – | – | – | – | – | – | – | – | – | 3.7 ± 3.8% | 14.7 ± 4.2% | 28.9 ± 3.2% | 60.3 ± 6.5% | – | – | – | viability at 25 μg/ml [5]: 99.9 ± 2.3%; MBC (Propionibacterium acnes; Cutibacterium acnes): 200 µg/mL (≈ 425 µM); MIC (Propionibacterium acnes; Cutibacterium acnes): 100 µg/mL (≈ 212 µM); inhibition at 100 µg/mL (Propionibacterium acnes; Cutibacterium acnes, read-out: Inhibition Rate (P. acnes growth)): 104 ± 3.1%; S.I (selectivity index, CC50 value/IC50 value) (B16 melanoma cells [2]; B16 melanoma cells): 0.8; IC50 (B16 melanoma cells [2]; Mus musculus, B16, read-out: IC50 (melanin synthesis)): 21.6 µM; inhibition at 1 µg/mL (B16 melanoma cells [2]; [9]): 0.1 ± 4.5%; inhibition at 2.5 µg/mL (B16 melanoma cells [2]; [9]): 1.9 ± 3.4%; inhibition at 5 µg/mL (B16 melanoma cells [2]; [9]): 13.4 ± 5.5%; inhibition at 10 µg/mL (B16 melanoma cells [2]; [9]): 51.8 ± 5%; IC50 (B16 melanoma cells [2]; [8]): 10.1 µg/mL; CC50 at 72 h (in vitro): 7.8 µg/mL and 16.5 µM |
| O=c1c(O)c(-c2ccc(O)c(O)c2)oc2cc(O)cc(O)c12 [Quercetin, reference compound] | – | – | – | – | – | – | – | – | – | – | – | – | – | – | – | – | – | – | – | – | inhibition at 82 µM (RBL-2H3 cells [4]; 82 μM, positive control, read-out: inhibition rate of β-hexosaminidase release): 72.5% |
